Experimental data taken from paper PMC6264190, “Interaction of α-Melanocortin and Its Pentapeptide Antisense LVKAT: Effects on Hepatoprotection in Male CBA Mice” (Molecules, 2011).
“Also recorded” adds a separate entry of the source.

Key:
LVKAT = test: Tryptophan fluorescence spectrofluorometric titration of sense peptides with antisense peptide LVKAT; type: binding
Method: Tryptophan fluorescence was used to detect binding of antisense pentapeptide LVKAT to the central binding region of α-MSH molecule. […] One was attributed to α-MSH and the other to its complex with antisense pentapeptide LVKAT. […] Consequently, the proposed model is given by Equation (1) and Equation (2), where Kd is the dissociation constant of the complex: […]
SENSE - LVKAT ⇄ SENSE + LVKAT(1)
(§1) Figure 2 A typical titration of 2.5 µM solution of α-MSH (sense) with LVKAT (antisense) at 25 °C, pH = 7.4, 10 mM phosphate buffer. The concentration of LVKAT was varied from 50 to 750 μM. Fluorescence units (f.u.) are given as a ratio of signals obtained from sample and reference PMTs. Inset: Fitting curve at 360 nm according to the Equation (1) and Equation (2).
as §1, with “Figure 3” for “Figure 2”, “of 25” for “of 2.5”, “of EHFRW” for “of α-MSH”, “to 500 µM.” for “to 750 μM.”
Fluorescence spectra were measured at 25 °C by OLIS RSM 1000F spectrofluorimeter (Olis, Bogart, GA, USA) equipped with thermostatted cell holder. […] Data obtained from the titrations were analyzed with the Specfit software package.

antibody to L-α-MSH = conditions: ref [15],[16]; cited from earlier work
[1] = tested on: hepatoprotective effects of α-MSH on the APAP induced hepatic lesions; test: Modulation of α-MSH hepatoprotection by antisense peptide in vivo (overall); parameters: species or system male CBA mice
Method: (§2) Experimental animals were male CBA mice, 12-16 weeks old, weighing 20-25 g and bred at the Ruđer Bošković Institute. Experiments were performed according to the ILAR Guide for the Care and Use of Laboratory Animals, Council Directive 86/609/EEC, and Croatian Animal Protection Act (Official Gazette 135/06). The animals were kept in a room with dark-light cycle (12h/12h) and constant temperature (22 ± 1 °C). Hepatotoxicity was induced according to the slightly modified procedure of Guarner et al.. To induce hepatic drug-metabolizing enzymes mice were given 0.3 g/L phenobarbitone-sodium (Kemika, Zagreb, Croatia) for 7 days. […] (Krka, Novo Mesto, Slovenia) 150 mg/kg was given intragastrically (i.g.), via a gastric tube, in a volume of 0.5 mL. […] Control animals were treated with saline (0.9% NaCl). The size of experimental groups was 6-8. Mice that spontaneously died were excluded from histopathological or biochemical analysis. […] However, the difference was not statistically significant.
(§3) Sections of the liver were fixed in 10% phosphate buffered formalin, embedded in paraffin, sectioned at 4 µm, and stained with hematoxilin and eosin. […] Alanine aminotransferase (ALT) and aspartate aminotransferase (AST) activity was determined from plasma by standard laboratory techniques. […]

[2] = tested on: acetaminophen (APAP)-induced liver lesions in male CBA mice; test: Histopathological grading of acetaminophen (APAP)-induced liver lesions; type: in vivo; conditions: mean ± SD; acetaminophen 150 mg/kg i.g.; α-MSH 2.5 mg/kg, LVKAT 0.8 mg/kg or their equimolar mixture i.p. 1 hour before; scored at 24 hours; 0 = no lesions, 5 = severe; group size 6-8; untreated controls 4.8 ± 0.46; α-MSH p < 0.05, LVKAT and mixture p > 0.05 vs controls
Method: as §2, §3

[3] = tested on: acetaminophen-induced hepatotoxicity in male CBA mice; test: Plasma alanine aminotransferase (ALT) activity 24 h after acetaminophen administration; type: in vivo; conditions: mean ± SD; 24 h after acetaminophen 150 mg/kg i.g.; α-MSH 2.5 mg/kg, LVKAT 0.8 mg/kg or their equimolar mixture i.p. 1 hour before; group size 6-8; untreated controls 10087 ± 9595; α-MSH significantly lower, LVKAT and mixture p > 0.05; normal animals 37.7 ± 7.7
Method: as §2, §3

[4] = tested on: acetaminophen induced hepatotoxicity; conditions: mouse model of acetaminophen induced hepatotoxicity; ref [15],[16]; cited from earlier work
Excerpt: Alpha-melanotropin (α-MSH) is an ancient, evolutionally conserved, tridecapeptide derived by the proteolytic cleavage from the pro-opiomelanocortin (POMC) hormone. It is currently the most widely studied melanocortin peptide in the context of tissue inflammation and cytoprotection. Recently, Turčić et al. […] Turčić et al. […] Sections of the liver were fixed in 10% phosphate buffered formalin, embedded in paraffin, sectioned at 4 µm, and stained with hematoxilin and eosin. Sections were examined by using light microscope, and grading of the liver lesions was done on 0-5 point scale according to Silva et al. (0 = no lesions, 1 = minimal, 2 = mild, 3 = moderate, 4 = marked and 5 = severe lesions). Alanine aminotransferase (ALT) and aspartate aminotransferase (AST) activity was determined from plasma by standard laboratory techniques. Plasma was sep ...

[5] = tested on: acetaminophen-induced hepatotoxicity in male CBA mice; test: Plasma aspartate aminotransferase (AST) activity 24 h after acetaminophen administration; type: in vivo; conditions: mean ± SD; 24 h after acetaminophen 150 mg/kg i.g.; α-MSH 2.5 mg/kg, LVKAT 0.8 mg/kg or their equimolar mixture i.p. 1 hour before; group size 6-8; untreated controls 6091 ± 4275; α-MSH significantly lower, LVKAT and mixture p > 0.05; normal animals 109.3 ± 25.3
Method: as §2, §3

male CBA mice = test: Spontaneous deaths in the acetaminophen hepatotoxicity model; type: in vivo; conditions: starting number eight per group; acetaminophen 150 mg/kg i.g.; α-MSH 2.5 mg/kg, LVKAT 0.8 mg/kg or equimolar mixture i.p.; none died in control; difference not statistically significant
Method: as §2

binding to LVKAT in fluorescence titration (in words) (LVKAT; same experimental conditions as for α-MSH (25 °C, pH = 7.4, 10 mM phosphate buffer)) | Substance | binding to antibody to L-α-MSH (antibody to L-α-MSH) | effect of LVKAT alone (hepatoprotection, in words) ([1]; LVKAT 0.8 mg/kg i.p. 1 hour before acetaminophen 150 mg/kg i.g., p > 0.05 vs untreated controls) | effect on hepatoprotection by α-MSH (in words) ([1]; LVKAT given with α-MSH (equimolar) i.p. 1 hour before acetaminophen 150 mg/kg i.g., histopathology, ALT and AST) | liver lesion score (scale 0-5) [2] | blood (plasma) alanine aminotransferase (ALT) [3] [U/L] | stoichiometry of complex with LVKAT (LVKAT; SVD analysis of fluorescence titration spectra, Specfit, no higher order complexes) [complex formation] | hepatoprotective effect (in words) [4] | blood (plasma) aspartate aminotransferase (AST) [5] [U/L] | animals that died spontaneously (male CBA mice)
very weak (if any) binding | Ac-SYSMEHFRWGKPV-NH2 [D-α-MSH, D-enantiomer of α-MSH] | does not bind antibody to L-α-MSH | – | – | – | – | – | – | – | –
– | LVKAT [pentapeptide antisense to central region of α-MSH that serves as the pharmacophore for melanocortin receptors] | – | not hepatoprotective per se | abolishes hepatoprotective effects of α-MSH | 5 ± 0 | – | – | – | – | –
– | Ac-SYSMEHFRWGKPV-NH2 [α-MSH, tridecapeptide derived by the proteolytic cleavage from the pro-opiomelanocortin (POMC) hormone] | – | – | – | 2 ± 0.75 | 585.8 ± 1424 | 1 to 1 | strong and dose dependent hepatoprotective effects; also recorded: potent hepatoprotective effects | 539.5 ± 459.6 | none of the animals died
